In US20210332073A1, “PROCESS FOR THE PREPARATION OF FERRIC CITRATE” (priority 2020, published 2021):
Structures can show the parent of a compound that is named as a salt.

Assay: Specific surface area of isolated ferric citrate
Type: physicochemical
Conditions: vacuum dried at 30-40° C.

Row | SMILES | specific surface area (Method B: two lots combined, sieve BSS 200/75 micron) | specific surface area (Method A step c: acetone dumped in one lot, 20 mesh sieve)
1 | O=C1CC2(O)CC(=O)[O][Fe]([O]1)[O]C2=O [Example-3, ferric citrate] | above 16 sq. m/g | –
2 | O=C1CC2(O)CC(=O)[O][Fe]([O]1)[O]C2=O [Ferric citrate, iron (+3), x (1,2,3-propanetricarboxylic acid, 2-hydroxy-), y (H2O)] | – | above 20 m^2/g
